The text below walks through data of patent US9585885B2, “Substituted pyrido[2,3-g]quinazolines as dopamine D2 receptor agonists” (KISSEI PHARMACEUTICAL CO., LTD., priority 2012, dated 2017).

The target of experiment [1] is T1, human serotonin 5-HT2B receptor (Homo sapiens, UniProt P41595).
T1 construct: expressed in transfected cells; host or cells: HEK293 (transient transfection)
In words: Stimulating activities of human serotonin 5-HT2B receptor, intracellular calcium in forced expression HEK293 cells. The settings on record: intracellular calcium concentration, mean value (n=2). The class given is cell-based. As to the method:
Identification Test of Stimulating Activities on Human Serotonin 5-HT2B Receptor
Mostly confluent HEK293 cells were washed with PBS, followed by exfoliation with 0.05% trypsin-EDTA and the cells were suspended in D-MEM liquid medium (phenol red-free, low glucose, pyruvic acid were contained) containing fetal bovine serum (final concentration: 10%) and GlutaMax (registered mark) I (final concentration: 2 mM). The suspension was scattered at 5×10^4 cells/100 μL/well on poly-D-lysine-coated 96-well microplate (BD BioCoat (registered mark)). The scattered cells were cultured in 5% CO2 incubator at 37° C. Human serotonin 5-HT2B receptor expression plasmid was transfected in that cells according to the procedure seeing below.
Human serotonin 5-HT2B receptor expression plasmid and Lipofectamine (registered mark) 2000 (Invitrogen) were diluted to 0.008 g/L and 0.016 g/L each other with OPTI-MEM (registered mark) I Reduced-Serum Medium and incubated at room temperature. After incubation, the human serotonin 5-HT2B receptor expression plasmid-diluted liquid and Lipofectamine (registered mark) 2000-diluted liquid were mixed at an equal volume and incubated at room temperature to form a complex. The complex was dispensed at 50 μL/well on the cells prepared above. The cells were incubated in 5% CO2 incubator at 37° C. for 2 days. After incubation, the cells were used as human serotonin 5-HT2B receptor forced expression cells for measurement of intracellular calcium concentration.
The stimulating activities of human serotonin 5-HT2B receptor was determined by measuring of intracellular calcium concentration. The 30 mM dimethyl sulfoxide (DMSO) solution contained test compounds or serotonin hydrochloride (Sigma) as positive control, was diluted with assay buffer ((HBSS), 20 mM HEPES, 1.3 mM calcium chloride, 0.5 mM magnesium chloride and 0.4 mM magnesium sulfate were contained, pH7.4) to appropriate concentration.
The forced expression cells were washed with assay buffer, and 100 μL/well of fluorescent calcium indicator (Fluo-4 NW Calcium Assay Kit) was added and incubated in 5% CO2 incubator at 37° C. After incubation, 50 μL/well of each test compound was added, and the concentration of intracellular calcium was measured as fluorescent signal with FlexStation (registered mark) II (Molecular Devices). The data was analyzed by nonlinear regression and sigmoidal dose-response curve fitting using GraphPad PRISM 4.0, and values of EC50 (concentration of the compound producing half the maximal effect of the compound) were calculated. The data was presented as mean value (n=2).

The target of experiment [2] is T2, human dopamine D2 receptor (Homo sapiens, UniProt P14416).
T2 construct: expressed in transfected cells
T2 sequence (P14416 whole entry): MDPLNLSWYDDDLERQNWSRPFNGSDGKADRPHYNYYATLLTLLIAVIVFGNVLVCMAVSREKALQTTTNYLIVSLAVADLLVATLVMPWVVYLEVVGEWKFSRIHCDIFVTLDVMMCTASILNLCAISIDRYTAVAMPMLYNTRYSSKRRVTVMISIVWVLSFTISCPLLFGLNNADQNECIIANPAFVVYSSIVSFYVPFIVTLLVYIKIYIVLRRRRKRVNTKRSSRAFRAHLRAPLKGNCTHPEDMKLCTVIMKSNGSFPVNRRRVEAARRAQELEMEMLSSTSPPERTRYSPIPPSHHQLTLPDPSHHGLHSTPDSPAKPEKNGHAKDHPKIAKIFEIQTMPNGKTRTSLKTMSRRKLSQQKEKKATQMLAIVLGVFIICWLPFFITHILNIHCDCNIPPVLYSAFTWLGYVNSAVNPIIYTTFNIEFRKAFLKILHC
In words: Stimulating activities of human dopamine D2 receptor, [35S]GTPγS binding to hD2R#7 (HEK293) membrane homogenates. It counts as biochemical. As to the method: Identification Test of Stimulating Activities on Human Dopamine D2 Receptor
The cells, which were grown to confluence in 150 mm dishes (IWAKI), were harvested with isotonic buffer (50 mM Tris (Sigma), 2 mM ethylenediamine-tetraacetic acid (Invitrogen), and 125 mM sodium chloride (Wako Pure Chemicals), pH 7.4) and centrifuged at 1880×g and 4° C. for 10 minutes, and the cell pellets were then suspended in isotonic buffer. After being subjected to one cycle of freezing and thawing, the cells were centrifuged at 1880×g and 4° C. for 10 minutes, and the cell pellets were suspended in isotonic buffer. The cells were centrifuged at 1880×g and 4° C. for 10 minutes, and the cell pellets were suspended in isotonic buffer and homogenate buffer (10 mM sodium bicarbonate (Nacalai) and 5 mM ethylenediamine-tetraacetic acid, pH 7.5). The volume ratio of isotonic-to-homogenate buffer was 2. The cells were sonicated and centrifuged at 1880×g and 4° C. for 10 minutes, and the supernatants were ultracentrifuged at 80000×g and 4° C. for 30 minutes. The final cell pellets were suspended in homogenate buffer containing protease inhibitor cocktail (Nacalai) and stored at −80° C. until use. The protein concentration was determined using BCA Protein Assay Kit (Pierce) in accordance with the manufacturer's instructions.
The stimulating activities of human dopamine D2 receptor was determined by measuring the binding potential of [^35S]-guanosine 5′-[gamma-thio]triphosphate ([^35S]GTPγS, PerkinElmer) according to the method described by Newman-Tancredi A. et al. (Naunyn-Schmiedeberg's Arch Pharmacol, 1999, vol. 359, pp. 447-453) with a minor modification. Test compounds and dopamine hydrochloride (Fluka) as positive control were dissolved in dimethyl sulfoxide (CARLBIOCHEM), resulting in 30 mM. The both compounds were diluted with assay buffer (50 mM Tris, 100 mM sodium chloride, 5 mM magnesium chloride (Nacalai), 1 mM ethylenediamine-tetraacetic acid, 1 mM dithiothreitol (Wako Pure Chemicals), 10 μM guanosine diphosphate (Wako Pure Chemicals) and 0.5% bovine serum albumin (Sigma), pH 7.4) to a final concentration of 100 pM (only test compounds), 1 nM, 10 nM, 100 nM, 1 μM, 10 μM and 100 μM (only dopamine hydrochloride). The above membrane homogenates and [^35S]GTPγS were diluted with assay buffer to a final concentration of 0.06 mg/mL and 0.6 nM, respectively. The serial diluted compounds (50 μL), the diluted membrane homogenates (50 μL) and the diluted [^35S]GTPγS (50 μL) were mixed on multi-screen 96-well plate (Millipore) and shaken lightly at room temperature for 60 minutes. The reaction was terminated by vacuum filtration with three times washes of ice-cold wash buffer (50 mM Tris, 100 mM sodium chloride, 5 mM magnesium chloride, and 1 mM ethylenediamine-tetraacetic acid, pH 7.4). After drying the bottoms of the plate at 60° C., MicroScinti-40 (PerkinElmer) (30 μL) was added in the plate. The tops of the plate were sealed by TopSeal-A (PerkinElmer), and the radioactivity was determined in a TopCount NXT (registered mark)(PerkinElmer) after shaking lightly for 5-10 minutes. The data was analyzed by nonlinear regression and sigmoidal dose-response curve fitting using GraphPad PRISM 4.0 (GraphPad Software), and values of EC50 (concentration of the compound producing half the maximal effect of the compound) were calculated. The data was presented as mean value (n=2).

Experiment [3] has as its system unilateral 6-hydroxydopamine-lesioned hemi-Parkisonian rats. Put plainly: Contralateral rotational behavior in unilateral 6-hydroxydopamine-lesioned hemi-parkinsonian rats. The class given is in vivo, rat. Particulars: orally 10 mg/kg, mean value; for Total number of rotations: contralateral rotations up to 24 hours after administration; for Duration: measured up to 24 hours after administration, duration of rotational response. As to the method: 6-OHDA was dissolved at 2 mg/mL in a physiolosical saline solution containing 0.2% L-ascorbic acid. Desipramine was dissolved at 10 mg/mL in a physiolosical saline solution in a hot-water bath. Apomorphine was dissolved at 0.1 mg/mL in a physiolosical saline solution. Ropinirole was dissolved in distilled water. Test compounds were dissolved in a solution containing 2% DMA, 100 or 200 mol % hydrochloric acid, and 98% of a 0.5% methyl cellulose solution. […] (Eur J Pharmacol, 2000, vol. 408, P. 249-255) with a minor modification. Male Sprague-Dawley rats (6-weeks-old, Charles River Laboratories Japan Inc.) were anaesthetized with intraperitoneal somnopentyl (45 mg/kg) injection and placed in a stereotaxic frame (Narishige). In order to prevent 6-OHDA-induced damage of noradrenergic neurons, desipramine (25 mg/kg) was intraperitoneally injected 30 minutes before the 6-OHDA injection. After the bregma identification via a middle calvarial incision, the skull was drilled using a dental drill at the site of 6-OHDA injection. The lesion was made by injecting 6-OHDA (8 μg in 4 μL at a speed of 1 μL/minute) unilaterally into the left medial forebrain bundle by using a injection cannula (30 gauge needle) connected to a microsyringe (Hamilton) (the lesion coordinates; A/P −2.5 mm, L/M −1.8 mm, and V/D −8.0 mm, from the bregma point and surface of the skull). The cannula was carefully removed from the animal after keeping placed on the lesion site for 5 minutes. The skull was filled its hole with dental cement, disinfected, and the scalp incision was surgically sutured. Animals recovered from anesthesia were housed as usual until the day of the experiment. Three weeks after the lesion, rats were tested on the basis of their contralateral rotational behavior (single rotation was defined as a 360° turn) in response to 0.1 mg/kg apomorphine given subcutaneously. For behavioral observation, rats were placed in plastic cylinders of a diameter of 30 cm, and its contralateral rotational behaviors were videotaped and quantified by rat-rotation auto counting system R-RACS (Kissei Wellcom). On the experimental day, animals were fasted overnight, and test compounds were orally administrated at doses of 10 mg/kg. The drug potency was measured until up to 24 hours after administration as the number of contralateral rotation. […] Total number of rotations and the duration of the response in experimental period were presented as mean value. As comparative example, ropinirole as non-ergot dopamine D2 receptor agonist, was examined in a similar fashion.

The mark [4] stands for this setting: [35S]GTPγS binding, membrane homogenates, mean value (n=2), read-out: EC50.

Where two headings read alike, the source gives them in different places.

T1 sequence (P41595 whole entry): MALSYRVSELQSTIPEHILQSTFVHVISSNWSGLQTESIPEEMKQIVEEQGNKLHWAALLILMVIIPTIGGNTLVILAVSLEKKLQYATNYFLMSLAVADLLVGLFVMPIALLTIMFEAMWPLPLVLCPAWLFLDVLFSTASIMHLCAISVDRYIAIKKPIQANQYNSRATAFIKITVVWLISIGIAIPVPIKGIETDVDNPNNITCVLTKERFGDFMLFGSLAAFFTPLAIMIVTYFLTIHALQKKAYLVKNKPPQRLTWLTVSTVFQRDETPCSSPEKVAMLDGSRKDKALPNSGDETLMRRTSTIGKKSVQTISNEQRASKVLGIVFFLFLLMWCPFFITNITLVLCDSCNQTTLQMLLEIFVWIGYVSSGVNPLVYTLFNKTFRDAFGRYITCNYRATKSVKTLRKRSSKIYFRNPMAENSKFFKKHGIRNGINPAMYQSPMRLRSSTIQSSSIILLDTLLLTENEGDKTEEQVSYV

For the molecule `CCCN1C[C@@H](NC(=O)N(CC)CCN(C)CCOC)C[C@@H]2Cc3nc(N)ncc3C[C@H]21` (relative stereo) [Compound 1-41], the EC50 is over 10000 nM in experiment [1] and 116 nM in experiment [2] (setting [4]).
On to `CCCN1C[C@@H](NC(=O)N2CCc3ccccc3C2)C[C@@H]2Cc3nc(N)ncc3C[C@H]21` (relative stereo) [Compound 1-37], for which the figures for the EC50 in experiment [1] and in experiment [2] (setting [4]) were over 10000 nM and 10 nM, respectively.
Take `CCCN1C[C@@H](NC(=O)N(CCc2ccccc2)CCN(C)C)C[C@@H]2Cc3nc(N)ncc3C[C@H]21` (relative stereo) [Compound 1-23, 3-[(5aR*,8S*,9aR*)-2-amino-6-propyl-5,5a,6,7,8,9,9a,10-octahydropyrido[2,3-g]quinazolin-8-yl]-1-[2-(dimethylamino)ethyl]-1-(2-phenylethyl)urea]: the concentration for a half-maximal effect (EC50) in experiment [1] was over 10000 nM. The half-maximal effective concentration (EC50) in experiment [2] (setting [4]) was found to be 223 nM. Besides, in experiment [3], the “Total number of rotations” value is 9184.0 and the Duration came out at 870.0 minuets.
For the molecule `CCCN1C[C@@H](NC(=O)NC)C[C@@H]2Cc3nc(N)ncc3C[C@H]21` (relative stereo) [Compound 1-13], the 50% effective concentration (EC50) was over 10000 nM in experiment [1] and 161 nM in experiment [2] (setting [4]).
On to `CCCN1C[C@@H](NC(=O)N(CC)CCN2CCCCC2)C[C@@H]2Cc3nc(N)ncc3C[C@H]21` (relative stereo) [Compound 1-25, 3-[(5aR*,8S*,9aR*)-2-amino-6-propyl-5,5a,6,7,8,9,9a,10-octahydropyrido[2,3-g]quinazolin-8-yl]-1-ethyl-1-[2-(piperidin-1-yl)ethylurea], for which, in experiment [1], the EC50 was over 10000 nM. In experiment [2] (setting [4]), the EC50 was determined as 126 nM. Moreover, in experiment [3], the “Total number of rotations” value stood at 5025.0 and the Duration is on record as 621.3 minuets.
Consider `CCCN1C[C@@H](NC(=O)N(C)CCOC)C[C@@H]2Cc3nc(N)ncc3C[C@H]21` (relative stereo) [Compound 1-12], for which the EC50 in experiment [1] was over 10000 nM; in experiment [2] (setting [4]) it was 43 nM.
`CCCN1C[C@@H](CO)C[C@@H]2Cc3nc(N)ncc3C[C@H]21` (relative stereo) [compound 1, [(5aR*,8S*,9aR*)-2-amino-6-propyl-5,5a,6,7,8,9,9a,10-octahydropyrido[2,3-g]quinazolin-8-yl]methanol, reference compound]: the EC50 in experiment [2] (setting [4]) came to 2900 nM.
For the molecule `CCCN(CCC)CCc1cccc2c1CC(=O)N2` [Ropinirole, ropinirole, reference compound], in experiment [3], the “Total number of rotations” value is 276.3 and the Duration is on record as 61.3 minuets.
`CCCN1C[C@@H](NC(=O)N(C)C)C[C@@H]2Cc3nc(N)ncc3C[C@H]21` [Compound 1-5] displayed an EC50 in experiment [2] of 9 nM.
In the case of `CCCN1C[C@@H](NC(=O)N(C)CCc2ccncc2)C[C@@H]2Cc3nc(N)ncc3C[C@H]21` (relative stereo) [Compound 1-36], the EC50 in experiment [1] is over 10000 nM; in experiment [2] (setting [4]), 34 nM.
Consider `CCCN1C[C@@H](NC(=O)N(CC)CCN2CCc3ccccc3C2)C[C@@H]2Cc3nc(N)ncc3C[C@H]21` (relative stereo) [Compound 1-33], for which the figures for the EC50 in experiment [1] and in experiment [2] (setting [4]) were over 10000 nM and 93 nM, respectively.
With `CCCN1C[C@@H](NC(=O)N(CCN(C)C)CC(C)C)C[C@@H]2Cc3nc(N)ncc3C[C@H]21` [Compound 1-3, 3-[(5aR,8S,9aR)-2-amino-6-propyl-5,5a,6,7,8,9,9a,10-octahydropyrido[2,3-g]quinazolin-8-yl]-1-[2-(dimethylamino)ethyl]-1-(2-methylpropyl)urea], in experiment [3], the “Total number of rotations” value is 3610.5 and the Duration is on record as 387.5 minuets.
With `CCCN1C[C@@H](NC(=O)N(C)CCc2ccccc2)C[C@@H]2Cc3nc(N)ncc3C[C@H]21` (relative stereo) [Compound 1-11], the EC50 was over 10000 nM in experiment [1] and 19 nM in experiment [2] (setting [4]).
As to `CCCN1C[C@@H](NC(=O)N(C)CCN(C)c2ccccc2)C[C@@H]2Cc3nc(N)ncc3C[C@H]21` (relative stereo) [Compound 1-39], the EC50 is over 10000 nM in experiment [1] and 39 nM in experiment [2] (setting [4]).
As for `CCCN1C[C@@H](NC(=O)N(C)C2CC2)C[C@@H]2Cc3nc(N)ncc3C[C@H]21` (relative stereo) [Compound 1-16], the EC50 in experiment [1] is over 10000 nM; in experiment [2] (setting [4]) it was 93 nM.
For `CCCN1C[C@@H](NC(=O)N2CCCCC2)C[C@@H]2Cc3nc(N)ncc3C[C@H]21` (relative stereo) [Compound 1-34], the EC50 in experiment [1] was over 10000 nM; in experiment [2] (setting [4]), 63 nM.
